Test results taken from patent US9029076B2, “Tissue preservation and fixation method” (George Mason Research Foundation, Inc., priority 2006, dated 2015).

Tests used:
Assay in all cases: RPA phosphoprotein level after 24 h storage of tumor needle samples in preservatives
Settings in all cases: 24 h in preservative at 4° C., relative normalized RPA intensity
IKappa-Ba ser32 = tested on: IKappa-Ba ser32
Protocol: (§1) The RPA format, originated by the present inventors and collaborators (see, e.g., Paweletz et al. (2001) Oncogene 20, 1981-1989), immobilizes an individual test sample in a miniature dilution curve such that an array contains hundreds of different patient samples, treatments, or time points. In the RPA format, each array is incubated with one detection protein (e.g. anti-peptide antibody), and a single analyte endpoint is measured and directly compared across multiple samples. Briefly, the lysates are printed on glass backed nitrocellulose array slides (FAST Slides Whatman, Florham Park, N.J. or ONCYTE slides Grace BioLabs, Bend, Oreg.) using a robotic array printing device (GMS 417 arrayer (Affymetrix, Santa Clara, Calif. or Aushon 2470, Aushon Biosystems, Burlington, Mass. equipped with 125-500 μm pins). Each lysate is printed in a dilution curve representing neat, 1:2, 1:4, 1:8, 1:16 and negative control dilutions. The slides are stored with desiccant (Drierite, W. A. Hammond, Xenia, Ohio) at −20° C. prior to immunostaining.
(§2) Immunostaining is performed on an automated slide stainer per manufacturer's instructions (Autostainer CSA kit, Dako, Carpinteria, Calif.). Each slide is incubated with a single primary antibody at room temperature for 30 minutes. Polyclonal primary antibodies can be, e.g.: GSK3α/β Tyr279/216 (Invitrogen-Biosource, Carlsbad, Calif.), BCL-2, HIF-1α (BD, Franklin Lakes, N.J.), 4EBP1, FKHR ser256, eIF4E, eIF4E ser209, eIF4G, eIF4G ser1108, IGFR-β, IRS-1, IRS-2, IRS-1 ser612, SGK, Bak, Bax, BAD, BAD ser112, BAD ser136, BAD ser155, B-Raf, mTOR, mTOR ser2448, p70S6 Thr389, p70S6 kinase, p70S6 ser371, S6 kinase ser240/244, Akt, Akt ser473, Akt Thr308, 4EBP1 ser65, 4EBP1 ser70, and 4EBP1 Thr37/46 (Cell Signaling Technology, Danvers, Mass.). A negative control slide is incubated with antibody diluent. Secondary antibody can be goat anti-rabbit IgG H+L (1:5000) (Vector Labs, Burlingame, Calif.).
(§3) Each array is scanned, spot intensity analyzed, data normalized, and a standardized, single data value can be generated for each sample on the array (Image Quant v5.2, GE Healthcare, Piscataway, N.J.) or MicroVigene v2.8, Vigene Tech, Billerica, Mass.). Spot intensity is integrated over a fixed area. Local area background intensity is calculated for each spot with the unprinted adjacent slide background. […] The Ward method for two-way hierarchical clustering can be performed using JMP v5.0 (SAS Institute, Cary N.C.). Wilcoxon two-sample rank sum test can be used to compare values between two groups. P values less than 0.05 are considered significant. When one cannot assume a normal distribution of the variables, non-parametric methods are used. Kaplan-Meier (log-rank) survival estimates for univariate survival analysis can be used.
(§4) Briefly, tumor tissues from gastrinoma/liver, mesothelioma and parathyroid tumors were sampled by five needle passes and placed into the preservatives listed in Table 5. […] Immediate lysis and denaturation of the cellular proteins were accomplished by standard Pierce Tissue Protein Extraction Buffer (T-PER), with additional SDS, denaturing reagents, and detergents. The cell samples were stored 24 h in the listed preservatives at 4° C. and then the listed phosphoprotein endpoints were measured. […] Some values dropped to zero while others are markedly elevated compared to the freshly lysed cell baseline. […] They were unable to stabilize the phosphorylation state of key signal proteins over a storage period of 24 hours, which is a typical time delay for cell or tissue shipment. Numbers in the table are relative normalized intensity values using the RPA technology described herein.

CREB ser133 = tested on: CREB ser133
Protocol: as §1, §2, §3, §4

CC3 Asp175 = tested on: CC3 Asp175
Protocol: as §1, §2, §3, §4

p38 T180/182 = tested on: p38 T180/182
Protocol: as §1, §2, §3, §4

IRS-1 ser612 = tested on: IRS-1 ser612
Protocol: as §1, §2, §3, §4

AKT Thr308 = tested on: AKT Thr308
Protocol: as §1, §2, §3, §4

ERK T202/Y204 = tested on: ERK T202/Y204
Protocol: as §1, §2, §3, §4

AKT ser473 = tested on: AKT ser473
Protocol: as §1, §2, §3, §4

GSK3ab ser21/9 = tested on: GSK3ab ser21/9
Protocol: as §1, §2, §3, §4

EGFR Y1148 = tested on: EGFR Y1148
Protocol: as §1, §2, §3, §4

[1] = Gastrinoma/liver tumor, Lysis Buffer = frozen immediately after lysis
[2] = Parathyroid tumor, Lysis Buffer = frozen immediately after lysis

SMILES	IKappa-Ba ser32 Normalized data (IKappa-Ba ser32; [1])	IKappa-Ba ser32 Normalized data (IKappa-Ba ser32; Mesothelioma)	IKappa-Ba ser32 Normalized data (IKappa-Ba ser32; [2])	CREBser133 Normalized data (CREB ser133; [1])	CREBser133 Normalized data (CREB ser133; Mesothelioma)	CREBser133 Normalized data (CREB ser133; [2])	CC3 Asp175 Normalized data (CC3 Asp175; [1])	CC3 Asp175 Normalized data (CC3 Asp175; Mesothelioma)	CC3 Asp175 Normalized data (CC3 Asp175; [2])	p38 T180/182 Normalized data (p38 T180/182; [1])	p38 T180/182 Normalized data (p38 T180/182; Mesothelioma)	p38 T180/182 Normalized data (p38 T180/182; [2])	IRS-1 ser612 Normalized data (IRS-1 ser612; [1])	IRS-1 ser612 Normalized data (IRS-1 ser612; Mesothelioma)	IRS-1 ser612 Normalized data (IRS-1 ser612; [2])	AKT Thr308 Normalized data (AKT Thr308; [1])	AKT Thr308 Normalized data (AKT Thr308; Mesothelioma)	AKT Thr308 Normalized data (AKT Thr308; [2])	ERK T202/Y204 Normalized data (ERK T202/Y204; [1])	ERK T202/Y204 Normalized data (ERK T202/Y204; Mesothelioma)	also measured
OC[C@H]1O[C@@](CO)(O[C@H]2O[C@H](CO)[C@@H](O)[C@H](O)[C@H]2O)[C@@H](O)[C@@H]1O [30% sucrose, sucrose]	69.82	0.00	0.33	69.03	22.82	2.09	61.02	17.90	2.23	63.91	28.71	1.15	31.46	1.84	0.00	42.04	12.13	0.00	48.68	15.67	ERK T202/Y204 Normalized data (ERK T202/Y204; [2]): 1.15; AKT ser473 Normalized data (AKT ser473; [1]): 16.16; AKT ser473 Normalized data (AKT ser473; Mesothelioma): 19.36; AKT ser473 Normalized data (AKT ser473; [2]): 3.27; GSK3ab ser21/9 Normalized data (GSK3ab ser21/9; [1]): 37.27; GSK3ab ser21/9 Normalized data (GSK3ab ser21/9; Mesothelioma): 3.12; GSK3ab ser21/9 Normalized data (GSK3ab ser21/9; [2]): 0.00; EGFR Y1148 Normalized data (EGFR Y1148; [1]): 65.97; EGFR Y1148 Normalized data (EGFR Y1148; Mesothelioma): 22.84; EGFR Y1148 Normalized data (EGFR Y1148; [2]): 6.14
CC(C)=O [Acetone]	48.91	36.08	49.65	91.79	83.10	83.74	38.23	26.75	29.46	77.58	87.57	72.96	33.10	10.72	40.55	25.45	30.05	21.93	46.15	55.31	ERK T202/Y204 Normalized data (ERK T202/Y204; [2]): 77.97; AKT ser473 Normalized data (AKT ser473; [1]): 4.56; AKT ser473 Normalized data (AKT ser473; Mesothelioma): 27.53; AKT ser473 Normalized data (AKT ser473; [2]): 13.12; GSK3ab ser21/9 Normalized data (GSK3ab ser21/9; [1]): 35.47; GSK3ab ser21/9 Normalized data (GSK3ab ser21/9; Mesothelioma): 55.72; GSK3ab ser21/9 Normalized data (GSK3ab ser21/9; [2]): 123.00; EGFR Y1148 Normalized data (EGFR Y1148; [1]): 65.10; EGFR Y1148 Normalized data (EGFR Y1148; Mesothelioma): 49.89; EGFR Y1148 Normalized data (EGFR Y1148; [2]): 81.36
